Common to all, as to type: cell-based
Test [1] deals with HGC‐27 (gastric carcinoma). Briefly: Resazurin cell viability assay, HGC‐27. Particulars: 50 µM; for inhibition at 50 µM: Homo sapiens, HGC-27. The method, then: (§1) The tongue squamous cell carcinoma cell line CAL‐27 (ATCC CRL‐2095), breast carcinoma BT‐20 (ATCC HTB‐19), gastric carcinoma HGC‐27 (BCRJ Code 0310), and normal oral fibroblast OHMF (culture of fibroblasts derived from human oral healthy mucosa, approved by the Research Ethics Committee of the University of São Paulo, Campus of Ribeirão Preto, Brazil (with protocol number 049) were cultured in DMEM medium (DMEM, Sigma‐Aldrich, St. Louis, MO, USA) supplemented with 10% fetal bovine serum and a solution of penicillin (100 U/mL) and streptomycin (100 μg/mL). The cultures were maintained in a humidified incubator with 5% CO₂ at 37°C.
(§2) Cell viability was analyzed using the resazurin assay. For this, cells were seeded in 96‐well plates (1 × 10^3 cells per well) and incubated at 37°C with 5% CO₂ overnight for cell adhesion. Subsequently, the cells were treated with different compounds (0–50 µM) for 72 h. After treatment, the medium was replaced with phenol‐free DMEM medium (Sigma‐Aldrich) containing resazurin at a concentration of 44 µM (Sigma‐Aldrich). After incubation for 4 h at 37°C, fluorescence detection was performed (excitation 530/25 nm, emission 590/35 nm) using a microplate fluorimeter (Synergy 2, Biotek). Initial cell growth inhibition assays were performed in triplicate or quadruplicate, while IC50 determinations were conducted in triplicate. Data were plotted, and IC₅₀ values were determined by nonlinear regression using GraphPad Prism software 9.0.
(§3) ^a Cell viability was assessed using the resazurin assay after 72 hours of compound treatment. Fluorescence was measured to estimate % of cellular growth inhibition at 50 µM values, based on triplicate experiments.
(§4) ^b IC50 values were determined using the same resazurin-based assay, with fluorescence measurements performed after 72 hours of treatment. These experiments were carried out in triplicate.
(The colour change of resazurin is a common sign of viable cells or microbes.)

For the next test, the system named is BT‐20 (breast carcinoma). Briefly: Resazurin cell viability assay, BT‐20. Particulars: 50 µM; for inhibition at 50 µM: Homo sapiens, BT-20. The method, then: as §1, §2, §3, §4
The subject of a further test is CAL‐27 (oral carcinoma). Briefly: Resazurin cell viability assay, CAL‐27. The following applies: 50 µM; for inhibition at 50 µM: Homo sapiens, CAL-27. The method, then:
as §1, §2, §3, §4

Where [2] appears, read: 72 hours, triplicate, read-out: % Cellular growth inhibition (at 50 µM) HGC-27 (supplement).
The mark [3] stands for this setting: 72 hours, triplicate, read-out: % Cellular growth inhibition (at 50 µM) BT-20 (supplement).
The mark [4] stands for this setting: 72 hours, triplicate, read-out: % Cellular growth inhibition (at 50 µM) CAL-27 (supplement).
Where [5] appears, read: 72 h, mean ± SD, n = 3, read-out: % Cellular growth inhibition (at 50 µM) HGC‐27.
Setting [6] is: 72 h, mean ± SD, n = 3, read-out: % Cellular growth inhibition (at 50 µM) BT‐20.
Where [7] appears, read: 72 h, mean ± SD, n = 3, read-out: % Cellular growth inhibition (at 50 µM) CAL‐27.

Read-outs that look alike come from different tables or passages of the source.

We go through eight compounds from PMC12673918, “Design, Synthesis, and Selective Antiproliferative Activity of Indolizine Derivatives as Microtubule Destabilizers” (Archiv Der Pharmazie, 2025).

Regarding “1‐(4‐methoxyphenyl)‐2‐(pyridin‐2‐yl)ethanone [Compound 4c]”, the “% Cellular growth inhibition (at 50 µM) HGC-27 (supplement)” value in test [1] (72 hours, triplicate) came to 14.1 ± 1.8%. In the test with BT‐20 (breast carcinoma) (72 hours, triplicate), the “% Cellular growth inhibition (at 50 µM) BT-20 (supplement)” value was found to be 13.7 ± 0.7%. The “% Cellular growth inhibition (at 50 µM) CAL-27 (supplement)” value in the test on CAL‐27 (oral carcinoma) (72 hours, triplicate) is on record as 9.0 ± 0.8%.
The like results for “2‐(pyridin‐2‐yl)‐1‐(p‐tolyl)ethanone [Compound 4d]” were, in that order, 17.3 ± 1.2%, 17.4 ± 0.6% and 12.6 ± 1.2%.
As usually defined, the inhibition is the change of the read-out against control, counted positive when it falls. As to `O=C(Cc1ccccn1)c1ccccc1` [Compound 4a, 1‐phenyl‐2‐(pyridin‐2‐yl)ethanone], the inhibition at 50 µM in test [1] (setting [2]) was 2.4 ± 0.9%; with BT‐20 (breast carcinoma) (setting [3]) it was 7.5 ± 0.5%; in the test on CAL‐27 (oral carcinoma) (setting [4]), 12.2 ± 2%.
As for `O=C(Cc1ccccn1)c1ccc(Cl)cc1` [Compound 4b, 1‐(4‐chlorophenyl)‐2‐(pyridin‐2‐yl)ethanone], the values for the inhibition at 50 µM (in test [1] (setting [2]); with BT‐20 (breast carcinoma) (setting [3]); in the test on CAL‐27 (oral carcinoma) (setting [4])) were 16.1 ± 1.6%, 17.3 ± 1.8% and 11.4 ± 0.4%, respectively.
On the same counts, the results for `O=C(Cc1ccccn1)c1ccc(Cl)c(Cl)c1` [Compound 4e, 1‐(3,4‐dichlorophenyl)‐2‐(pyridin‐2‐yl)ethanone] are 36.9 ± 0.8%, 43.3 ± 0.6% and 22.3 ± 1.3%.
Consider `COc1cc(C(=O)Cc2ccccn2)cc(OC)c1OC` [Compound 4f, 2‐(pyridin‐2‐yl)‐1‐(3,4,5‐trimethoxyphenyl)ethenone], for which the inhibition at 50 µM worked out at 10 ± 0.7% in test [1] (setting [5]), 19 ± 1.2% with BT‐20 (breast carcinoma) (setting [6]) and 20 ± 2.2% in the test on CAL‐27 (oral carcinoma) (setting [7]).
On the same counts, the results for `O=C(c1ccccc1)c1ccn2ccccc12` [Compound 6a, (Indolizin‐1‐yl)(phenyl)methanone] are 20 ± 1.1%, 26 ± 1% and 15 ± 0.8%.
The like results for `COc1cc(C(=O)c2ccn3ccccc23)cc(OC)c1OC` [Compound 6f, (Indolizin‐1‐yl)(3,4,5‐Trimethoxyphenyl)Methanone] were, in that order, 38 ± 1.6%, 43 ± 0.5% and 57 ± 0.9%.
